Measurements: US20210244686A1, “Novel Systems And Methods For The Therapeutic Use of Cannabinoids or Cannabinoid Analogs to Increase The Lipid Order of Cholesterol Containing Cell Membranes” (The Regents of the University of Colorado a body corporate, priority 2018, published 2021)

Assays:
Type in all cases: cell-based, human
[1] = tested on: SK-N-BE(2) cells; assay: cells
Protocol: To efficiently design the multi-omics experiments, the present inventors exposed the neuroblastoma cell line SK-N-BE(2) to escalating doses of CBD at 24, 48, and 72 hours and determined the EC50 of toxicity of CBD to be greatest at 72 hours and at an approximate concentration of 20 μM (FIG. 1 B). To maximize the efficient use of the inventor's multi-omic resources, a large dose and time survey of the CBD response was conducted in a panel of transgenic SK-N-BE(2) and HaCaT keratinocyte cell lines, each expressing a genetically encoded förster resonance energy transfer (FRET) biosensor gene capable of reporting the activity of a cellular effector molecule/activity including, but not limited to: AMP kinase activity, Erk kinase activity, cytosolic ATP, glucose, lactate, pyruvate & glutamine, Ca^2+ in the ER & Cytosol, mTor kinase activity & TACE protease activity. […] The biosensor activity profiles as a function of CBD dose and time (FIGS. 9A-C) were analyzed for the EC50 of each biosensor activity at each time (FIG. 10). The result of these efforts outlined that the most robust dose of CBD for use in multi-omic experiments is 20 μM and that the kinetic profile of the CBD response begins in hours and persists for days.

[2] = tested on: SK-N-BE(2) cells; assay: 13C glucose labelled lipidomics of cholesterol biosynthesis; details: 20 μM CBD, 24 hours
Protocol: These findings raise the question of whether CBD treatment leads to alterations in lipid and cholesterol metabolism (the latter pathway depicted in FIG. 3A). The present inventors used mass spectrometry-based lipidomics, a subset of metabolomics, to quantify the effect of CBD on the fluxes of key lipids and sterols. Vehicle and CBD exposed cells were fed ^13C labeled glucose for 24 hours and harvested using methanol extraction and mass spectrometry analysis. Cholesterol biosynthesis was analyzed by determining the level of incorporation of ^13C into biosynthetic intermediates. […] The effect of CBD on total cellular cholesterol was confirmed using a fluorogenic assay for cholesterol in an orthogonal experiment (FIG. 11B).
Cultured cells were harvested, washed with PBS, flash frozen, and stored at −80 C. until analysis. Prior to LC-MS analysis, samples were placed on ice and re-suspended with methanol:acetonitrile:water (5:3:2, v/v/v) at a concentration of 2 million cells per ml. Suspensions were vortexed continuously for 30 min at 4° C. Insoluble material was removed by centrifugation at 10,000 g for 10 min at 4° C. and supernatants were isolated for metabolomics analysis by UHPLC-MS. This method was used for cholesterol precursors and free headgroups. […]

[3] = tested on: SREBP2; assay: Western blot analysis of SREBP2 proteolytic processing; details: 24 hr
Excerpt: To further investigate the role of SREBP/SCAP signaling in the CBD response, the present inventors used western blot analysis to probe whether SREBP2 proteolytic processing is affected by CBD. […] The present inventors performed this assay with cells grown in LDL containing FBS (elevated cholesterol) and LDL depleted FBS (cholesterol starved). […] However, the inventors also detect evidence that although cholesterol precursors are accumulating in a CBD dependent manner, cholesterol itself appears to experience a net decrease in de novo synthesis. This is evident in the overall decrease in newly synthesized ^13C labeled cholesterol in CBD treated cells (FIG. 3B) and implies an apparent blockage in the final step of cholesterol biosynthesis, which is catalyzed by either DHCR24 or DHCR7 in the ER.
Cells were harvested at 24 hours by trypsinization and counted using a hemocytometer to determine cell concentration. 4×10^6 cells from each sample were lysed using 200 μL SDS lysis buffer (20 mM Tris pH 6.8, 4% SDS, 0.5% beta mercaptoethanol) and lysates were boiled for 5 minutes 95° C. and subsequently sonicated at 40% power 10 cycles 10 seconds on/off. 10 μL of lysate was loaded into each lane of a 12% SDS PAGE gel. Immunoblotting of protein transferred to nitrocellulose membrane was performed using anti-SREBP2 (Cayman Chemical #10007663).

[4] = tested on: SKNBE2 neuroblastoma cells; assay: Flow cytometric analysis of rhodamine-glibenclamide staining in live cells
[5] = tested on: SKNBE2 neuroblastoma cells; assay: Toxicity profiling, percent death with and without cholesterol challenge; details: 24 hrs of exposure; high doses
Excerpt: FIG. 15. Toxicity profiling.

In the case of `C=C(C)[C@@H]1CCC(C)=C[C@H]1c1c(O)cc(CCCCC)cc1O` [CBD, cannabidiol], the EC50 ([1]; Homo sapiens, SKNBE2, SK-N-BE(2), greatest at 72 hours, approximate, read-out: EC50 of toxicity) is reported as ~20 µM, the “doses that can induce cell death” value ([1]; after 24 hours) is reported as > 40 µM and the “labeled and total cholesterol” value [2] is reported as “decrease”. For the same compound, the “total and isotopically-labeled levels of cholesterol precursors” value [2] was “accumulate”, the “magnitude of SREBP2 cleavage activation versus U18666A or Atorvastatin” value ([3]; U18666A 10 μM, Atorvastatin 10 μM) was “lower in magnitude” and the SREBP2 cleavage ([3]; both cholesterol starved and elevated cholesterol conditions) was “dose dependent activation”. The “cellular response similar to cholesterol drugs Atorvastatin and Ezetimibe” value ([4]; SKNBE2 neuroblastoma cells) was “low cholesterol response”, the rhodamine-glibenclamide fluorescence ([4]; live cells, flow cytometry) was “Enhanced fluorescence” and the “toxicity in cells challenged with a high cholesterol environment” value [5] was “toxic”.
